By IC50 is commonly meant the point on the concentration scale where inhibition reaches its midpoint.

This note sets out measurements from patent US20230279020A9, “CARM1 INHIBITORS AND USES THEREOF” (Epizyme, Inc., priority 2013, published 2023).

Some results are limits rather than exact numbers.

Sequence of Human CARM1 (PRMT4) (Q86X55 other isoform, or with tags, fused parts or gaps isoform Q86X55-1): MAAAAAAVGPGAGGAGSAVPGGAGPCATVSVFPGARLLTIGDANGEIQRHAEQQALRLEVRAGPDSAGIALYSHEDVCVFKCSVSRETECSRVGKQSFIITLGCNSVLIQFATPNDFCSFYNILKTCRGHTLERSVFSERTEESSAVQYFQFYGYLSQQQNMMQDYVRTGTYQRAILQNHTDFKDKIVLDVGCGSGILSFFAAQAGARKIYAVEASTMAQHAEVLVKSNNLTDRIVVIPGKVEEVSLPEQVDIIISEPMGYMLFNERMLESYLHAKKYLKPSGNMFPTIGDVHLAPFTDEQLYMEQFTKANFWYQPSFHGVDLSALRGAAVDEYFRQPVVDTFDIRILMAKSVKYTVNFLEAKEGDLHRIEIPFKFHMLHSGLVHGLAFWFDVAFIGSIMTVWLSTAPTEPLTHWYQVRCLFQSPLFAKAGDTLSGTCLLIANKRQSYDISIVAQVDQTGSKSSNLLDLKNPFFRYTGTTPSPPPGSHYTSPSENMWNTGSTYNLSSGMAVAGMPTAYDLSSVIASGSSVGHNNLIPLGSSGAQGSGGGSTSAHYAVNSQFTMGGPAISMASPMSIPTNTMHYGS

The assay deals with Human CARM1 (PRMT4) (Homo sapiens (Human), UniProt Q86X55). Description: CARM1 enzyme assay on peptide substrate (3H-SAM Flashplate). The note with it: Biochemical potencies, classification codes; read-out: Biochem IC50. The text has this:
S-adenosylmethionine (SAM), S-adenosylhomocysteine (SAH), bicine, Tween20, dimethylsulfoxide (DMSO), bovine skin gelatin (BSG), sodium butyrate and Tris(2-carboxyethyl)phosphine hydrochloride solution (TCEP) were purchased from Sigma-Aldrich at the highest level of purity possible. ^3H-SAM was purchase from American Radiolabeled Chemicals with a specific activity of 80 Ci/mmol. 384-well streptavidin Flashplates were purchased from PerkinElmer.
Peptide representative of human histone H3 residues 16-30 was synthesized with an N-terminal linker-affinity tag motif and a C-terminal amide cap by 21st Century Biochemicals. […] The sequence was Biot-Ahx-[…]-amide and contained a monomethylated arginine at position 26 (SEQ ID NO.:1).
The gene sequence encoding isoform1 containing a deletion of amino acids 539-561 was amplified subsequently and subcloned into pFastBacMam (Viva Biotech).
Recombinant baculovirus were generated according to Bac-to-Bac kit instructions (Life Technologies). Protein over-expression was accomplished by infecting exponentially growing HEK 293F cell culture at 1.3×10^6cell/ml with virus (MOI=10) in the presence of 8 mM sodium butyrate. Infections were carried out at 37° C. for 48 hours, harvested by centrifugation, and stored at −80° C. for purification.
Expressed full-length human Flag- and His-tagged CARM1 protein was purified from cell paste by anti-flag M2 affinity chromatography with resin equilibrated with buffer containing 20 mM Tris, 150 mM NaCl, 5% glycerol, pH 7.8. Column was washed with 500 mM NaCl in buffer A and Flag-CARM1-His was eluted with 200 ug/ml FLAG peptide in buffer A. Pooled fractions were dialyzed in 20 mM Tris, 150 mM NaCl, 5% glycerol and 1 mM DTT, pH 7.8.
The assays were all performed in a buffer consisting of 20 mM Bicine (pH=7.6), 1 mM TCEP, 0.005% BSG, and 0.002% Tween 20, prepared on the day of use. Compounds in 100% DMSO (1 ul) were spotted into a polypropylene 384-well V-bottom plates (Greiner) using a Platemate Plus outfitted with a 384-channel head (Thermo Scientific). DMSO (1 ul) was added to Columns 11, 12, 23, 24, rows A-H for the maximum signal control and 1 ul of SAH, a known product and inhibitor of CARM1, was added to columns 11, 12, 23, 24, rows I-P for the minimum signal control. A cocktail (40 ul) containing the CARM1 enzyme was added by Multidrop Combi (Thermo-Fisher). The compounds were allowed to incubate with CARM1 for 30 min at room temperature, then a cocktail (10 ul) containing ^3H-SAM and peptide was added to initiate the reaction (final volume=51 ul). The final concentrations of the components were as follows: CARM1 was 0.25 nM, ^3H-SAM was 30 nM, peptide was 250 nM, SAH in the minimum signal control wells was 1 mM, and the DMSO concentration was 2%. The assays were stopped by the addition of non-radiolabeled SAM (10 ul) to a final concentration of 300 uM, which dilutes the ^3H-SAM to a level where its incorporation into the peptide substrate is no longer detectable. 50 ul of the reaction in the 384-well polypropylene plate was then transferred to a 384-well Flashplate and the biotinylated peptides were allowed to bind to the streptavidin surface for at least 1 hour before being washed once with 0.1% Tween20 in a Biotek ELx405 plate washer. The plates were then read in a PerkinElmer TopCount plate reader to measure the quantity of ^3H-labeled peptide bound to the Flashplate surface, measured as disintegrations per minute (dpm) or alternatively, referred to as counts per minute (cpm).
where dpm=disintegrations per minute, cmpd=signal in assay well, and min and max are the respective minimum and maximum signal controls.
where top and bottom are the normally allowed to float, but may be fixed at 100 or 0 respectively in a 3-parameter fit. The Hill Coefficient normally allowed to float but may also be fixed at 1 in a 3-parameter fit. Y is the % inhibition and X is the compound concentration.
Turning to `CNCC(O)COc1cccc(-c2nc(Nc3nccn3C)c(C)c(-c3c(C)noc3C)n2)c1` (stereo not shown) [Example 18-3], the IC50 is less than 100 nM.

For `CNCC(O)COc1cccc(-c2nc(N(C)C3CCOCC3)cc(C3(C)CC3)n2)c1` (stereo not shown) [Example 19-1], the IC50 is less than 100 nM.

As to `CNCC(O)COc1cccc(-c2nc(-c3c(C)noc3C)cc(N3CCN(C)CC3)n2)c1` (stereo not shown) [Example 19-1a], the half-inhibitory concentration (IC50) was less than 100 nM.

Take `CNCC(O)COc1cccc(-c2nc(N[C@H]3C[C@@](C)(OC)C3)c(C)c(-c3c(C)noc3C)n2)c1` (stereo partly shown) [Example 19-3]: the IC50 is less than 100 nM.

Regarding `CNCC(O)COc1cccc(-c2nc(NCCOC)cc(-c3c(C)noc3C)n2)c1` (stereo not shown) [Example 20-1], the half-inhibitory concentration (IC50) was less than 100 nM.

As to `CCN1CCN(c2cc(-c3c(C)noc3C)nc(-c3cccc(OCC(O)CNC)c3)n2)CC1` (stereo not shown) [Example 20-1a], the IC50 is less than 100 nM.

As to `CNCC(O)COc1cccc(-c2nc(-c3c(C)noc3C)c(C)c(N(C)[C@H]3C[C@@](C)(OC)C3)n2)c1` (stereo partly shown) [Example 20-3], the 50% inhibitory concentration (IC50) is less than 100 nM.

For `CNCC(O)COc1cccc(-c2nc(Nc3cncnc3)cc(-c3c(C)noc3C)n2)c1` (stereo not shown) [Example 21-1a], the half-inhibitory concentration (IC50) is less than 100 nM.

Consider `CNCC(O)COc1cc(Cl)cc(-c2nc(NC3CCN(CC(F)F)CC3)c(C)c(-c3c(C)noc3C)n2)c1` (stereo not shown) [Example 21-3], for which the IC50 is less than 100 nM.

As for `CNCC(O)COc1cccc(-c2nc(NC(C)C)cc(N(C)C3CCOCC3)n2)c1` (stereo not shown) [Example 22-1], the half-inhibitory concentration (IC50) was less than 100 nM.

With `CNCC(O)COc1cc(Cl)cc(-c2nc(NC3CCN(C4CC4)CC3)c(C)c(-c3c(C)noc3C)n2)c1` (stereo not shown) [Example 22-3], the 50% inhibitory concentration (IC50) was less than 100 nM.

In the case of `CNCC(O)COc1cccc(-c2nc(-c3cccc(C#N)c3)cc(N(C)CCC#N)n2)c1` (stereo not shown) [Example 24-1], the concentration for half-maximal inhibition (IC50) was less than 100 nM.

On to `CCOC(=O)N1CCOC[C@H]1CNc1nc(-c2cc(OC[C@@H](O)CNC)ccc2Cl)nc(-c2c(C)noc2C)c1C` [Example 24-3], for which the concentration for half-maximal inhibition (IC50) is less than 100 nM.

As to `CNCC(O)COc1cc(OC)cc(-c2nc(C3CC3)cc(N(C)C3CCOCC3)n2)c1` (stereo not shown) [Example 25-1], the IC50 is less than 100 nM.

For the compound `CCOC(=O)N1CCOC[C@H]1CNc1nc(-c2cc(OC[C@H](O)CNC)ccc2Cl)nc(-c2c(C)noc2C)c1C` [Example 25-3], the 50% inhibitory concentration (IC50) was less than 100 nM.

Consider `CNCC(O)COc1cccc(-c2nc(N[C@H]3CCOC3)c(C)c(N3CCOCC3)n2)c1` (stereo partly shown) [Example 26-1], for which the IC50 is less than 100 nM.

As to `CNC[C@H](O)COc1ccc(F)c(-c2nc(NC3CCN(C(=O)OC)CC3)c(C)c(-c3c(C)noc3C)n2)c1` [Example 26-3], the IC50 was less than 100 nM.

Consider `CNCC(O)COc1cccc(-c2nc(NC)cc(-c3c(C)noc3C)n2)c1` (stereo not shown) [Example 27-1a], for which the IC50 is less than 100 nM.

As for `CCOC(=O)N1CCCCC1CNc1nc(-c2cc(OC[C@@H](O)CNC)ccc2Cl)nc(-c2c(C)noc2C)c1C` (stereo partly shown) [Example 27-3], the half-inhibitory concentration (IC50) was less than 100 nM.

Regarding `CCOC(=O)N1CCN(c2cc(-c3c(C)noc3C)nc(-c3cccc(OCC(O)CNC)c3)n2)CC1` (stereo not shown) [Example 28-1a], the half-maximal inhibitory concentration (IC50) was less than 100 nM.

With `CCOC(=O)N1CCCCC1CNc1nc(-c2cc(OC[C@H](O)CNC)ccc2Cl)nc(-c2c(C)noc2C)c1C` (stereo partly shown) [Example 28-3], the IC50 was less than 100 nM.

Turning to `CNCC(O)COc1cccc(-c2nc(NCCOC)cc(-c3cc4ccccc4o3)n2)c1` (stereo not shown) [Example 29-1], the IC50 was less than 100 nM.

As for `CNCC(O)COc1cccc(-c2nc(-c3c(C)noc3C)cc(N3CCNC(C(=O)O)C3)n2)c1` (stereo not shown) [Example 29-1a], the half-inhibitory concentration (IC50) is less than 100 nM.

Regarding `CNCC(O)COc1ccc(Cl)c(-c2nc(NC3CCOCC3)c(C)c(-c3c(C)noc3C)n2)c1` (stereo not shown) [Example 29-3], the half-inhibitory concentration (IC50) is less than 100 nM.

As for `CNCC(O)COc1cccc(-c2nc(-c3c(C)noc3C)cc(N3CCN(C4CC4)CC3)n2)c1` (stereo not shown) [Example 30-1a], the concentration for half-maximal inhibition (IC50) is less than 100 nM.

With `CNCC(O)COc1ccc(Cl)c(-c2nc(NCC3CCOC3)c(C)c(-c3c(C)noc3C)n2)c1` (stereo not shown) [Example 30-3], the IC50 is less than 100 nM.

As to `CNCC(O)COc1cccc(-c2nc(NC3CCOC3)cc(-c3c(C)noc3C)n2)c1` (stereo not shown) [Example 31-1a], the half-inhibitory concentration (IC50) was less than 100 nM.

Turning to `CNCC(O)COc1ccc(Cl)c(-c2nc(NCC3CCCCO3)c(C)c(-c3c(C)noc3C)n2)c1` (stereo not shown) [Example 31-3], the IC50 was less than 100 nM.

Consider `CNCC(O)COc1cccc(-c2nc(-c3cccnc3)cc(N(C)C3CCOCC3)n2)c1` (stereo not shown) [Example 32-1], for which the IC50 was less than 100 nM.

Regarding `CNCC(O)COc1cccc(-c2nc(N[C@H]3CC[C@H](O)CC3)cc(-c3c(C)noc3C)n2)c1` (stereo partly shown) [Example 32-1a], the IC50 is less than 100 nM.

As for `CNC[C@@H](O)COc1cccc(-c2nc(NC3CCN(C(=O)OC)C(C)C3)c(C)c(-c3c(C)noc3C)n2)c1` (stereo partly shown) [Example 32-3], the IC50 was less than 100 nM.

Consider `CNCC(O)COc1cccc(-c2nc(NC3CCOCC3)cc(-c3c(C)noc3C)n2)c1` (stereo not shown) [Example 33-1], for which the IC50 is less than 100 nM.

Turning to `CNCC(O)COc1cccc(-c2nc(N[C@H]3CC[C@@H](O)CC3)cc(-c3c(C)noc3C)n2)c1` (stereo partly shown) [Example 33-1a], the IC50 is less than 100 nM.

`CNC[C@H](O)COc1cccc(-c2nc(NC3CCN(C(=O)OC)C(C)C3)c(C)c(-c3c(C)noc3C)n2)c1` (stereo partly shown) [Example 33-3]: the IC50 is less than 100 nM.

Regarding `CNCC(O)COc1cccc(-c2nc(NCCOC)cc(-c3cnn(CC(C)C)c3)n2)c1` (stereo not shown) [Example 34-1], the IC50 was less than 100 nM.

Consider `CNCC(O)COc1cccc(-c2nc(-c3c(C)noc3C)c(C)c(N(C)C3CCOCC3)n2)c1` (stereo not shown) [Example 34-1a], for which the IC50 is less than 100 nM.

`CNCC(O)COc1cccc(-c2nc(-c3c(C)noc3C)c(C)c(N3CCn4ccnc4C3)n2)c1` (stereo not shown) [Example 34-3]: the IC50 was less than 100 nM.

For the compound `CNCC(O)COc1cccc(-c2nc(-c3c(C)noc3C)cc(N3CCNC(C)C3)n2)c1` (stereo not shown) [Example 35-1a], the concentration for half-maximal inhibition (IC50) was less than 100 nM.

For `CNCC(O)COc1cccc(-c2nc(-c3c(C)noc3C)c(C)c(N3Cc4cccnc4C3)n2)c1` (stereo not shown) [Example 35-3], the IC50 is less than 100 nM.

`CNCC(O)COc1cccc(-c2nc(N3CCOCC3)cc(N(C)C3CCOCC3)n2)c1` (stereo not shown) [Example 36-1]: the half-inhibitory concentration (IC50) is less than 100 nM.

For `CNCC(O)COc1cccc(-c2nc(-c3c(C)noc3C)cc(N3CCNC(C)(C)C3)n2)c1` (stereo not shown) [Example 36-1a], the concentration for half-maximal inhibition (IC50) was less than 100 nM.

Take `CNCC(O)COc1ccc(Cl)c(-c2nc(O[C@H]3CCN(C(=O)OC)[C@@H](C)C3)c(C)c(-c3c(C)noc3C)n2)c1` (stereo partly shown) [Example 36-3]: the IC50 was less than 100 nM.

Regarding `CNCC(O)COc1cccc(-c2nc(N3CCOCC3)c(C)c(N(C)[C@H]3CCOC3)n2)c1` (stereo partly shown) [Example 37-1], the half-maximal inhibitory concentration (IC50) is less than 100 nM.

On to `CNCC(O)COc1ccc(Cl)c(-c2nc(NC3CC4(CCN(C(=O)OC)CC4)C3)c(C)c(-c3c(C)noc3C)n2)c1` (stereo not shown) [Example 37-3], for which the IC50 was less than 100 nM.

For the compound `CNCC(O)COc1cccc(-c2nc(-c3c(C)noc3C)cc(N3CCN(C(C)=O)[C@@H](C)C3)n2)c1` (stereo partly shown) [Example 38-1a], the IC50 was less than 100 nM.

Consider `CNCC(O)COc1ccc(Cl)c(-c2nc(NC3CC(O)(C(F)(F)F)C3)c(C)c(-c3c(C)noc3C)n2)c1` (stereo not shown) [Example 38-3], for which the half-maximal inhibitory concentration (IC50) is less than 100 nM.

For the compound `CNCC(O)COc1cccc(-c2nc(-c3c(C)noc3C)cc(N3CCN(C(C)=O)C[C@H]3C)n2)c1` (stereo partly shown) [Example 39-1a], the IC50 was less than 100 nM.

`CNCC(O)COc1ccc(Cl)c(-c2nc(N[C@H]3CCC[C@@H](O)C3)c(C)c(-c3c(C)noc3C)n2)c1` (stereo partly shown) [Example 39-3]: the half-inhibitory concentration (IC50) is less than 100 nM.

As for `CNCC(O)COc1cccc(-c2nc(-c3c(C)noc3C)cc(N3CCN[C@@H](C)C3)n2)c1` (stereo partly shown) [Example 40-1a], the IC50 was less than 100 nM.
